SMILES strings stand for the structures.

As a reminder, the Km is the substrate concentration at which the rate is half of its maximum.

This experiment relates to T1, L-Glutaminase (Streptomyces roseolus strain ZKB1).
T1 construct: gene glsA
Kind of experiment: ammonia release by Nessler's reagent, […] nm; Lineweaver-Burk. Conditions: free enzyme; phosphate buffer pH 7.0; 37 °C; 30 min; 25-100 mM substrate. Format: cell-based.

With `NC(=O)CC[C@H](N)C(=O)O` [L-glutamine], the Km was 13.9 ± 0.8 mM.

Source of the values: PMC11930913, “Anticancer, antioxidant and antibacterial potential of L-Glutaminase (Streptomyces roseolus strain ZKB1) capped silver and zinc oxide nanoparticles and its molecular characterization” (Bioresources and Bioprocessing, 2025).
